Results: PubChem BioAssay (NCI)
“And” between values parts separate entries of the source, which are not always exact repeats. Equal entries are not always repeated.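 1) Cells in 96-well plates. 2) Compound, 48 h, 5 concentrations. 3) Linear interpolation between surrounding doses. 4) Unreached endpoint = highest concentration. GI50: concentration for 50% inhibition of growth. TGI: concentration producing complete growth inhibition.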

Tests used:
Assay in all cases: NCI anticancer screen, dose series, 48 h
786-0 renal = system: 786-0 renal
A498 renal = system: A498 renal
A549 NSCLC = system: A549 NSCLC
ACHN renal = system: ACHN renal
CAKI-1 renal = system: CAKI-1 renal
CCRF-CEM leukemia = system: CCRF-CEM leukemia
COLO 205 colon = system: COLO 205 colon
DLD-1 colon = system: DLD-1 colon
DMS 114 small cell lung = system: DMS 114 small cell lung
DMS 273 small cell lung = system: DMS 273 small cell lung
EKVX NSCLC = system: EKVX NSCLC
HCC-2998 colon = system: HCC-2998 colon
HCT-116 colon = system: HCT-116 colon
HCT-15 colon = system: HCT-15 colon
HL-60(TB) leukemia = system: HL-60(TB) leukemia
HOP-18 NSCLC = system: HOP-18 NSCLC
HOP-62 NSCLC = system: HOP-62 NSCLC
IGROV1 ovarian = system: IGROV1 ovarian
K-562 leukemia = system: K-562 leukemia
KM12 colon = system: KM12 colon
KM20L2 colon = system: KM20L2 colon
LOX IMVI melanoma = system: LOX IMVI melanoma
LXFL 529 NSCLC = system: LXFL 529 NSCLC
M14 melanoma = system: M14 melanoma
M19-MEL melanoma = system: M19-MEL melanoma
MALME-3M melanoma = system: MALME-3M melanoma
MOLT-4 leukemia = system: MOLT-4 leukemia
NCI-H226 lung = system: NCI-H226 lung
NCI-H23 lung = system: NCI-H23 lung
NCI-H460 lung = system: NCI-H460 lung
NCI-H522 lung = system: NCI-H522 lung
OVCAR-3 ovarian = system: OVCAR-3 ovarian
OVCAR-4 ovarian = system: OVCAR-4 ovarian
OVCAR-5 ovarian = system: OVCAR-5 ovarian
OVCAR-8 ovarian = system: OVCAR-8 ovarian
RPMI-8226 leukemia = system: RPMI-8226 leukemia
RXF 393 renal = system: RXF 393 renal
RXF-631 renal = system: RXF-631 renal
SF-268 CNS = system: SF-268 CNS
SF-295 CNS = system: SF-295 CNS
SF-539 CNS = system: SF-539 CNS
SK-MEL-2 melanoma = system: SK-MEL-2 melanoma
SK-MEL-28 melanoma = system: SK-MEL-28 melanoma
SK-MEL-5 melanoma = system: SK-MEL-5 melanoma
SK-OV-3 ovarian = system: SK-OV-3 ovarian
SN12C renal = system: SN12C renal
SNB-19 CNS = system: SNB-19 CNS
SNB-75 CNS = system: SNB-75 CNS
SNB-78 CNS = system: SNB-78 CNS
SR leukemia = system: SR leukemia
SW-620 colon = system: SW-620 colon
TK-10 renal = system: TK-10 renal
U251 CNS = system: U251 CNS
UACC-257 melanoma = system: UACC-257 melanoma
UACC-62 melanoma = system: UACC-62 melanoma
UO-31 renal = system: UO-31 renal
HT29 colon = system: HT29 colon
XF 498 CNS = system: XF 498 CNS

C[n+]1ccc(-c2c3nc(c(-c4cc[n+](C)cc4)c4ccc([n-]4)c(-c4cc[n+](C)cc4)c4nc(c(-c5cc[n+](C)cc5)c5ccc2[n-]5)C=C4)C=C3)cc1.[I-].[Zn+2]
GI50 (786-0 renal): 8.39 µM
TGI (786-0 renal): 28 µM
GI50 (A498 renal): 8.34 µM
TGI (A498 renal): 31.3 µM
GI50 (A549 NSCLC): 22.3 µM
TGI (A549 NSCLC): 49.5 µM
GI50 (ACHN renal): 15.5 µM
TGI (ACHN renal): 36.2 µM
GI50 (CAKI-1 renal): 20 µM
TGI (CAKI-1 renal): 41.7 µM
GI50 (CCRF-CEM leukemia): 14.1 µM
TGI (CCRF-CEM leukemia): 44.5 µM
GI50 (COLO 205 colon): 18.3 µM
TGI (COLO 205 colon): 35.8 µM
GI50 (DLD-1 colon): 29.3 µM
TGI (DLD-1 colon): 84.3 µM
GI50 (DMS 114 small cell lung): 7.11 µM
TGI (DMS 114 small cell lung): 22.6 µM
GI50 (DMS 273 small cell lung): 33.7 µM
TGI (DMS 273 small cell lung): > 100 µM
GI50 (EKVX NSCLC): 11.1 µM
TGI (EKVX NSCLC): 47.6 µM
GI50 (HCC-2998 colon): 49.6 µM
TGI (HCC-2998 colon): > 100 µM
GI50 (HCT-116 colon): 50.5 µM
TGI (HCT-116 colon): > 100 µM
GI50 (HCT-15 colon): > 100 µM
TGI (HCT-15 colon): > 100 µM
GI50 (HL-60(TB) leukemia): 21.5 µM
TGI (HL-60(TB) leukemia): 42 µM
GI50 (HOP-18 NSCLC): 16.9 µM
TGI (HOP-18 NSCLC): 41.3 µM
GI50 (HOP-62 NSCLC): 19.9 µM
TGI (HOP-62 NSCLC): 44.2 µM
GI50 (IGROV1 ovarian): 25.4 µM
TGI (IGROV1 ovarian): 57.8 µM
GI50 (K-562 leukemia): 23 µM
TGI (K-562 leukemia): 59.8 µM
GI50 (KM12 colon): 23.3 µM
TGI (KM12 colon): 69.5 µM
GI50 (KM20L2 colon): 23.1 µM
TGI (KM20L2 colon): > 100 µM
GI50 (LOX IMVI melanoma): 82.9 µM
TGI (LOX IMVI melanoma): > 100 µM
GI50 (LXFL 529 NSCLC): 20.1 µM
TGI (LXFL 529 NSCLC): 43 µM
GI50 (M14 melanoma): 14 µM
TGI (M14 melanoma): 35.5 µM
GI50 (M19-MEL melanoma): 10.3 µM
TGI (M19-MEL melanoma): 28.3 µM
GI50 (MALME-3M melanoma): 18.3 µM
TGI (MALME-3M melanoma): 39.8 µM
GI50 (MOLT-4 leukemia): 28.4 µM
TGI (MOLT-4 leukemia): > 100 µM
GI50 (NCI-H226 lung): 14.9 µM
TGI (NCI-H226 lung): 48.3 µM
GI50 (NCI-H23 lung): 26.8 µM
TGI (NCI-H23 lung): 59.2 µM
GI50 (NCI-H460 lung): 23.5 µM
TGI (NCI-H460 lung): 53.5 µM
GI50 (NCI-H522 lung): 1.61 µM
TGI (NCI-H522 lung): 9.88 µM
GI50 (OVCAR-3 ovarian): 7.02 µM
TGI (OVCAR-3 ovarian): 28.1 µM
GI50 (OVCAR-4 ovarian): 2.43 µM
TGI (OVCAR-4 ovarian): 10.4 µM
GI50 (OVCAR-5 ovarian): > 100 µM
TGI (OVCAR-5 ovarian): > 100 µM
GI50 (OVCAR-8 ovarian): 23.6 µM
TGI (OVCAR-8 ovarian): 61.1 µM
GI50 (RPMI-8226 leukemia): 32.1 µM
TGI (RPMI-8226 leukemia): > 100 µM
GI50 (RXF 393 renal): 3.03 µM
TGI (RXF 393 renal): 7.91 µM
GI50 (RXF-631 renal): 17.1 µM
TGI (RXF-631 renal): 46.8 µM
GI50 (SF-268 CNS): 11 µM
TGI (SF-268 CNS): 25.9 µM
GI50 (SF-295 CNS): 38 µM
TGI (SF-295 CNS): > 100 µM
GI50 (SF-539 CNS): 16.2 µM
TGI (SF-539 CNS): 39.9 µM
GI50 (SK-MEL-2 melanoma): 19.1 µM
TGI (SK-MEL-2 melanoma): 47.3 µM
GI50 (SK-MEL-28 melanoma): 5.54 µM
TGI (SK-MEL-28 melanoma): 20 µM
GI50 (SK-MEL-5 melanoma): 15.9 µM
TGI (SK-MEL-5 melanoma): 37.4 µM
GI50 (SK-OV-3 ovarian): 33 µM
TGI (SK-OV-3 ovarian): 69.5 µM
GI50 (SN12C renal): 19.7 µM
TGI (SN12C renal): 43.3 µM
GI50 (SNB-19 CNS): 19.4 µM
TGI (SNB-19 CNS): 45.5 µM
GI50 (SNB-75 CNS): 12.5 µM
TGI (SNB-75 CNS): 32.8 µM
GI50 (SNB-78 CNS): 23.3 µM
TGI (SNB-78 CNS): 69.6 µM
GI50 (SR leukemia): 32.2 µM
TGI (SR leukemia): 94.7 µM
GI50 (SW-620 colon): 24.1 µM
TGI (SW-620 colon): 45.7 µM
GI50 (TK-10 renal): 15.2 µM
TGI (TK-10 renal): 38 µM
GI50 (U251 CNS): 22 µM
TGI (U251 CNS): 52.8 µM
GI50 (UACC-257 melanoma): 9.61 µM
TGI (UACC-257 melanoma): 30.1 µM
GI50 (UACC-62 melanoma): 27.5 µM
TGI (UACC-62 melanoma): > 100 µM
GI50 (UO-31 renal): 17.3 µM
TGI (UO-31 renal): 38.4 µM

CC1=C[P+](Cc2ccccc2)(c2ccccc2)CC1 (stereo unspecified)
TGI (786-0 renal): > 100 µM
TGI (A498 renal): > 100 µM
TGI (A549 NSCLC): > 100 µM
TGI (ACHN renal): > 100 µM
TGI (CCRF-CEM leukemia): > 100 µM
TGI (COLO 205 colon): > 100 µM
TGI (DLD-1 colon): > 100 µM
TGI (DMS 114 small cell lung): > 100 µM
TGI (DMS 273 small cell lung): > 100 µM
TGI (EKVX NSCLC): > 100 µM
GI50 (HCC-2998 colon): 97.7 µM and > 100 µM and 39.3 µM
TGI (HCC-2998 colon): > 100 µM
TGI (HCT-116 colon): > 100 µM
TGI (HCT-15 colon): > 100 µM
TGI (HL-60(TB) leukemia): > 100 µM
TGI (HOP-18 NSCLC): > 100 µM
TGI (HOP-62 NSCLC): > 100 µM
TGI (HT29 colon): > 100 µM
TGI (IGROV1 ovarian): > 100 µM
TGI (K-562 leukemia): > 100 µM
TGI (KM12 colon): > 100 µM
TGI (KM20L2 colon): > 100 µM
TGI (LOX IMVI melanoma): > 100 µM
TGI (LXFL 529 NSCLC): > 100 µM
TGI (M14 melanoma): > 100 µM
TGI (M19-MEL melanoma): > 100 µM
GI50 (MALME-3M melanoma): 19.9 µM and 76.5 µM and 31.2 µM
TGI (MALME-3M melanoma): > 100 µM
TGI (MOLT-4 leukemia): > 100 µM
TGI (NCI-H226 lung): > 100 µM
TGI (NCI-H23 lung): > 100 µM
TGI (NCI-H460 lung): > 100 µM
TGI (NCI-H522 lung): > 100 µM
TGI (OVCAR-3 ovarian): > 100 µM
TGI (OVCAR-4 ovarian): > 100 µM
TGI (OVCAR-5 ovarian): > 100 µM
TGI (OVCAR-8 ovarian): > 100 µM
TGI (RPMI-8226 leukemia): > 100 µM
TGI (RXF 393 renal): > 100 µM
TGI (SF-295 CNS): > 100 µM
TGI (SF-539 CNS): > 100 µM
TGI (SK-MEL-2 melanoma): > 100 µM
TGI (SK-MEL-28 melanoma): > 100 µM
TGI (SK-MEL-5 melanoma): > 100 µM and 56.7 µM and 84.1 µM
TGI (SK-OV-3 ovarian): > 100 µM
TGI (SN12C renal): > 100 µM
TGI (SNB-19 CNS): > 100 µM
TGI (SNB-75 CNS): > 100 µM
TGI (SNB-78 CNS): > 100 µM
TGI (SR leukemia): > 100 µM
TGI (SW-620 colon): > 100 µM
TGI (TK-10 renal): > 100 µM
GI50 (U251 CNS): 23.1 µM and 58.1 µM and 9.71 µM
TGI (U251 CNS): > 100 µM
TGI (UACC-257 melanoma): > 100 µM and 78 µM
TGI (UACC-62 melanoma): > 100 µM
TGI (UO-31 renal): > 100 µM
GI50 (XF 498 CNS): 25 µM
TGI (XF 498 CNS): 78.2 µM
